# Results reported in patent publication US11447493B2 (Kinnate Biopharma Inc., priority 2018, dated 2022).
# pIC50: −log10 of the molar value.
# Columns and labels:
# Test in all cases: Radiometric protein kinase assay (33PanQinase), Assay Condition A (thiol containing)
# Format in all cases: biochemical
# CDK12 wt/CycK = CDK12 wt/CycK (Homo sapiens (Human), UniProt Q9NYV4); details: thiol containing (1.2 mM DTT), ATP 0.3 μM
# Experimental: (§1) The IC50 profile of test compounds was determined using three protein kinases.
# (§2) The compounds were provided as pre-weighed powders in vials. The compounds were dissolved to 1×10^−02M by adding DMSO. 100 μl of each of the resulting stock solutions were transferred into column 2 of four 96 well “master plates”.
# (§3) Prior to testing, the 1×10^−02M stock solutions in column 2 of the master plates were subjected to a serial, semi-logarithmic dilution using 100% DMSO as a solvent. […] Column 1 and 7 were filled with 100% DMSO as controls. Subsequently, 2×10 μl from each well of the serial diluted copy plates were aliquoted with a 96 channel pipettor into two identical sets of “compound dilution plates”.
# (§4) In the process, 90 μl H2O were added to each well of a set of compound dilution plates. To minimize potential precipitation, the H2O was added to each plate only a few minutes before the transfer of the compound solutions into the assay plates. Each plate was shaken thoroughly, resulting in a “compound dilution plate/10% DMSO”.
# (§5) For the assays, 5 μl solution from each well of the compound dilution plates/10% DMSO were transferred into the assay plates. The final volume of the assay was 50 μl. All compounds were tested at 10 final assay concentrations in the range from 1×10^−04M to 3×10^−09M, in singlicate. The final DMSO concentration in the reaction cocktails was 1% in all cases.
# (§6) All protein kinases were expressed in Sf9 insect cells or in E. coli as recombinant GST-fusion proteins or His-tagged proteins, either as full-length or enzymatically active fragments. All kinases were produced from human cDNAs and purified by either GSH-affinity chromatography or immobilized metal. Affinity tags were removed from a number of kinases during purification. The purity of the protein kinases was examined by SDS-PAGE/Coomassie staining, the identity was checked by mass spectroscopy.
# (§7) A radiometric protein kinase assay (^33PanQinase® Activity Assay) was used for measuring the kinase activity of the three protein kinases. All kinase assays were performed in 96-well FlashPlates™ from PerkinElmer (Boston, Mass., USA) in a 50 μl reaction volume. The reaction cocktail was pipetted in four steps in the following order: • 20 μl of assay buffer (standard buffer) • 5 μl of ATP solution (in H2O) • 5 μl of test compound (in 10% DMSO) • 20 μl enzyme/substrate mix
# (§8) The reaction cocktails were incubated at 30° C. for 60 minutes. The reaction was stopped with 50 μl of 2% (v/v) H3PO4, plates were aspirated and washed two times with 200 μl 0.9% (w/v) NaCl. Incorporation of ^33Pi was determined with a microplate scintillation counter (Microbeta, Wallac). All assays were performed with a BeckmanCoulter/SAGIAN™ Core System.
# (§9) The median value of the counts in column 1 (n=8) of each assay plate was defined as “low control”. This value reflects unspecific binding of radioactivity to the plate in the absence of a protein kinase but in the presence of the substrate. The median value of the counts in column 7 of each assay plate (n=8) was taken as the “high control”, i.e. full activity in the absence of any inhibitor. The difference between high and low control was taken as 100% activity.
# (§10) As part of the data evaluation the low control value from a particular plate was subtracted from the high control value as well as from all 80 “compound values” of the corresponding plate. The residual activity (in %) for each well of a particular plate was calculated by using the following formula: Res. Activity (%)=100×[(cpm of compound−low control)/(high control−low control)]
# (§11) The residual activities for each concentration and the compound IC50 values were calculated using Quattro Workflow V3.1.1 (Quattro Research GmbH, Munich, Germany). […] The fitting method used was a least-squares fit.
# CDK2/CycA2 = CDK2/CycA2 (Homo sapiens (Human), UniProt P24941); details: thiol containing (1.2 mM DTT), ATP 0.3 μM
# Experimental: as §1, §2, §3, §4, §5, §6, §7, §8, §9, §10, §11
# CDK7/CycH/MAT1 = CDK7/CycH/MAT1 (Homo sapiens (Human), UniProt P50613); details: thiol containing (1.2 mM DTT), ATP 3.0 μM
# Sequence of CDK7/CycH/MAT1 (P50613 whole entry): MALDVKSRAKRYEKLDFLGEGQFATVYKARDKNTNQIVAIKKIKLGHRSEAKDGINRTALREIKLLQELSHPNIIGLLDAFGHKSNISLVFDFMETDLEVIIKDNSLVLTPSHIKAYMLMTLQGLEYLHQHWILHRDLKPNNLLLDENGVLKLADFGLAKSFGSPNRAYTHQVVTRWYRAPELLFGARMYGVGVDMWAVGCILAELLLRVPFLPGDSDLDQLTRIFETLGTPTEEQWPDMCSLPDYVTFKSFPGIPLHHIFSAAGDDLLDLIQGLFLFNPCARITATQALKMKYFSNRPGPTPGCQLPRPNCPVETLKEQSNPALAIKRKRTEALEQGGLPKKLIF
# Sequence of CDK7/CycH/MAT1 (P51946 whole entry partner): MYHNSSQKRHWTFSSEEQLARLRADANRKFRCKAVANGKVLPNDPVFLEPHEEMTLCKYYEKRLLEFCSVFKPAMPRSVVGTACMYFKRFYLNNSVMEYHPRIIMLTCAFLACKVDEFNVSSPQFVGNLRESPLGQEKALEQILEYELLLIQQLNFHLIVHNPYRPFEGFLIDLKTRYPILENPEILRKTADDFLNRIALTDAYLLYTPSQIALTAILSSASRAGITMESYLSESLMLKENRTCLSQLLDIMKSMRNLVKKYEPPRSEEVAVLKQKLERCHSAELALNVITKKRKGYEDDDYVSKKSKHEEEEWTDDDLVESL
# Sequence of CDK7/CycH/MAT1 (P51948 whole entry partner): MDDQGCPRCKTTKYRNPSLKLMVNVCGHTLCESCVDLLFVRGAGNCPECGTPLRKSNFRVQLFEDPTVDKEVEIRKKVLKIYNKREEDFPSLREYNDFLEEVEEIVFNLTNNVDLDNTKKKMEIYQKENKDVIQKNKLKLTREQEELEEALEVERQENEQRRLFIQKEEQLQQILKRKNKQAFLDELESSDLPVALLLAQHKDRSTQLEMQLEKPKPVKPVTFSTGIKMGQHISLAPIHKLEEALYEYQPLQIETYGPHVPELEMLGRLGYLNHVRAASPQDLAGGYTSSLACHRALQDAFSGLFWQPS
# Experimental: as §1, §2, §3, §4, §5, §6, §7, §8, §9, §10, §11
# Sequence of CDK12 wt/CycK (Q9NYV4 whole entry): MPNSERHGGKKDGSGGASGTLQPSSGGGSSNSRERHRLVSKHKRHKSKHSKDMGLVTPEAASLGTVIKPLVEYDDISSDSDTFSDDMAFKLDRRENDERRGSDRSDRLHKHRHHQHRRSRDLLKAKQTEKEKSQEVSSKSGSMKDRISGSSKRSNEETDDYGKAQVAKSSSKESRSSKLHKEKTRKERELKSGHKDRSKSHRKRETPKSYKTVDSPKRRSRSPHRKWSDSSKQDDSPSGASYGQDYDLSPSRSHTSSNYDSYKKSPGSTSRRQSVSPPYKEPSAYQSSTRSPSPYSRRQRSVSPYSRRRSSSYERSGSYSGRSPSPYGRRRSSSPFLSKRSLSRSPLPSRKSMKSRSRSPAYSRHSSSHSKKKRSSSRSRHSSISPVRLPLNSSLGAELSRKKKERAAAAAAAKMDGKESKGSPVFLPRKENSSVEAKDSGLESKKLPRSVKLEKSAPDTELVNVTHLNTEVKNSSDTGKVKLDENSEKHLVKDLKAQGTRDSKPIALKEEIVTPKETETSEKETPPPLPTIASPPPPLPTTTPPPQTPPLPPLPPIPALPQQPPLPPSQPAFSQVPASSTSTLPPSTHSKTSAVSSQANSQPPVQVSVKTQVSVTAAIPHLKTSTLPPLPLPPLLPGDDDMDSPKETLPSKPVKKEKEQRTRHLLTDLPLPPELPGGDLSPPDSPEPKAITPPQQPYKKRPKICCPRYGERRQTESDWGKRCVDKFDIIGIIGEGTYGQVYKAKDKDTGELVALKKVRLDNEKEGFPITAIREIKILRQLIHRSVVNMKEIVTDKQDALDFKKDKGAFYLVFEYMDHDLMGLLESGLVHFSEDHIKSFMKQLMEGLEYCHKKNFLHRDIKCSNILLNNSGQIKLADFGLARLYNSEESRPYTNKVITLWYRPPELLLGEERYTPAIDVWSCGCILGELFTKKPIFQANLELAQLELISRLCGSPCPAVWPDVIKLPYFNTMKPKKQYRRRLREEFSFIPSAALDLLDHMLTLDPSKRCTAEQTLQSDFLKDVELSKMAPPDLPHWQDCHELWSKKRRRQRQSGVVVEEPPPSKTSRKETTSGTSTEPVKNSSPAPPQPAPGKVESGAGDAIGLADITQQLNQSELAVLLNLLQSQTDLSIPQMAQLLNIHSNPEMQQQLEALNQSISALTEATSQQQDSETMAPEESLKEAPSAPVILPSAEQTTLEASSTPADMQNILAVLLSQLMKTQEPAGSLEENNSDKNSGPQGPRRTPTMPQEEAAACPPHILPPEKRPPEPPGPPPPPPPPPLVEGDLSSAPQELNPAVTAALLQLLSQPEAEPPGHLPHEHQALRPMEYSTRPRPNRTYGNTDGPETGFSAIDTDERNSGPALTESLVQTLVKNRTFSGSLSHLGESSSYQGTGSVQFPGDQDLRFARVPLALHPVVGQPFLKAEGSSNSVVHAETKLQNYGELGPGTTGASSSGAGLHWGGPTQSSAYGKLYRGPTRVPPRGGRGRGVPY
# Sequence of CDK12 wt/CycK (O75909 whole entry partner): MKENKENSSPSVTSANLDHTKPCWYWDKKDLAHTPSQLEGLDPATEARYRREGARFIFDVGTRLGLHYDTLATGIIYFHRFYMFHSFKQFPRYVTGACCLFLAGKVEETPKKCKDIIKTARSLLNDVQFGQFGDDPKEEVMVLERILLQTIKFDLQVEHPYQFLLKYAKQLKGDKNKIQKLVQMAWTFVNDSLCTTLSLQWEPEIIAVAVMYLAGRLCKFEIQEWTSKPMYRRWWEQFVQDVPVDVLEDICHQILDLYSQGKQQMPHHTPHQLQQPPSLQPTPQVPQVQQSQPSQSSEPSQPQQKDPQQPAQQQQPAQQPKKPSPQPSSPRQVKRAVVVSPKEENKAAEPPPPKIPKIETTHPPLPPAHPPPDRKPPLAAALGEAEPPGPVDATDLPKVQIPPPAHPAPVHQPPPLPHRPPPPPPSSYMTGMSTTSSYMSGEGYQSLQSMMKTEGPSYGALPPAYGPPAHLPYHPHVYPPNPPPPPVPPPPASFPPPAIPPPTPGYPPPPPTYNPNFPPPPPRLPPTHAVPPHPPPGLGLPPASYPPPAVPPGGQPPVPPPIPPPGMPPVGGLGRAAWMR
smiles,measurement,setting,value
"CCC(=O)Nc1ccc(C(=O)N2CC[C@@H](Nc3ncc4ccc(S(C)(=O)=O)cc4n3)C2)cc1 [Example 52, (R)—N-(4-(3-((7-(methylsulfonyl)quinazolin-2-yl)amino)pyrrolidine-1-carbonyl)phenyl)propionamide]",pIC50,CDK12 wt/CycK,6.00 to 7.00
same,pIC50,CDK2/CycA2,6.00 to 7.00
same,pIC50,CDK7/CycH/MAT1,5.00 to 6.00
"CCC(=O)Nc1ccc(C(=O)N2CC[C@@H](Nc3ncc4ccc(Cl)cc4n3)C2)cc1 [Example 53, (R)—N-(4-(3-((7-chloroquinazolin-2-yl)amino)pyrrolidine-1-carbonyl)phenyl)propionamide]",pIC50,CDK12 wt/CycK,6.00 to 7.00
same,pIC50,CDK2/CycA2,6.00 to 7.00
same,pIC50,CDK7/CycH/MAT1,5.00 to 6.00
"CCC(=O)Nc1ccc(C(=O)N2CC[C@@H](Nc3ncc4ccc(F)cc4n3)C2)cc1 [Example 54, (R)—N-(4-(3-((7-fluoroquinazolin-2-yl)amino)pyrrolidine-1-carbonyl)phenyl)propionamide]",pIC50,CDK12 wt/CycK,6.00 to 7.00
same,pIC50,CDK2/CycA2,5.00 to 6.00
same,pIC50,CDK7/CycH/MAT1,5.00 to 6.00
"CCC(=O)Nc1ccc(C(=O)N2CC[C@@H](Nc3ncc4ccc(C#N)cc4n3)C2)cc1 [Example 55, (R)—N-(4-(3-((7-cyanoquinazolin-2-yl)amino)pyrrolidine-1-carbonyl)phenyl)propionamide]",pIC50,CDK12 wt/CycK,6.00 to 7.00
same,pIC50,CDK2/CycA2,6.00 to 7.00
same,pIC50,CDK7/CycH/MAT1,5.00 to 6.00
"CCC(=O)Nc1ccc(C(=O)N2CC[C@@H](Nc3ncc4ccc(C(=O)O)cc4n3)C2)cc1 [Example 56, (R)-2-((1-(4-propionamidobenzoyl)pyrrolidin-3-yl)amino)quinazoline-7-carboxylic Acid]",pIC50,CDK12 wt/CycK,≥ 7.00
same,pIC50,CDK2/CycA2,≥ 7.00
same,pIC50,CDK7/CycH/MAT1,6.00 to 7.00
"CCC(=O)Nc1ccc(C(=O)N2CC[C@@H](Nc3ncc4ccc(C(N)=O)cc4n3)C2)cc1 [Example 57, (R)-2-((1-(4-propionamidobenzoyl)pyrrolidin-3-yl)amino)quinazoline-7-carboxamide]",pIC50,CDK12 wt/CycK,≥ 7.00
same,pIC50,CDK2/CycA2,≥ 7.00
same,pIC50,CDK7/CycH/MAT1,≥ 7.00
"CCC(=O)Nc1ccc(C(=O)N2CC[C@@H](Nc3ncc4ccc(C(=O)N(C)C)cc4n3)C2)cc1 [Example 59, (R)—N,N-dimethyl-2-((1-(4-propionamidobenzoyl)pyrrolidin-3-yl)amino)quinazoline-7-carboxamide]",pIC50,CDK12 wt/CycK,≥ 7.00
same,pIC50,CDK2/CycA2,≥ 7.00
same,pIC50,CDK7/CycH/MAT1,6.00 to 7.00
"CCC(=O)Nc1ccc(C(=O)N2CC[C@@H](Nc3ncc4ccc(=O)[nH]c4n3)C2)cc1 [Example 60, (R)—N-(4-(3-((7-oxo-7,8-dihydropyrido[2,3-d]pyrimidin-2-yl)amino)pyrrolidine-1-carbonyl)phenyl)propionamide]",pIC50,CDK12 wt/CycK,≥ 7.00
same,pIC50,CDK2/CycA2,5.00 to 6.00
same,pIC50,CDK7/CycH/MAT1,5.00 to 6.00
"C=CC(=O)Nc1ccc(C(=O)N2C[C@H](Nc3ncc4ccccc4n3)[C@@H](F)C2)cc1 [Example 63, N-(4-((3S,4S)-3-fluoro-4-(quinazolin-2-ylamino)pyrrolidine-1-carbonyl)phenyl)acrylamide]",pIC50,CDK12 wt/CycK,6.00 to 7.00
same,pIC50,CDK2/CycA2,4.52 to 5.00
same,pIC50,CDK7/CycH/MAT1,5.00 to 6.00
"C=CC(=O)Nc1ccc(C(=O)N2CC(Nc3ncc4ccccc4n3)C2)cc1 [Example 64, N-(4-(3-(quinazolin-2-ylamino)azetidine-1-carbonyl)phenyl)acrylamide]",pIC50,CDK12 wt/CycK,5.00 to 6.00
same,pIC50,CDK2/CycA2,5.00 to 6.00
same,pIC50,CDK7/CycH/MAT1,4.52 to 5.00
"CN(C)C/C=C/C(=O)Nc1ccc(C(=O)N2CC[C@@H](Nc3ncc4ccccc4n3)C2)cc1 [Example 65, (R,E)-4-(dimethylamino)-N-(4-(3-(quinazolin-2-ylamino)pyrrolidine-1-carbonyl)phenyl)but-2-enamide]",pIC50,CDK12 wt/CycK,6.00 to 7.00
same,pIC50,CDK2/CycA2,6.00 to 7.00
same,pIC50,CDK7/CycH/MAT1,6.00 to 7.00
"CN(C)C/C=C/C(=O)Nc1ccc(C(=O)N2CCC[C@@H](Nc3ncc4ccccc4n3)C2)cc1 [Example 66, (R,E)-4-(dimethylamino)-N-(4-(3-(quinazolin-2-ylamino)piperidine-1-carbonyl)phenyl)but-2-enamide]",pIC50,CDK12 wt/CycK,5.00 to 6.00
same,pIC50,CDK2/CycA2,4.00 to 4.52
same,pIC50,CDK7/CycH/MAT1,4.00 to 4.52
"C=CC(=O)Nc1c(C)cc(C(=O)N2CC[C@@H](Nc3ncc4ccccc4n3)C2)cc1F [Example 75, (R)—N-(2-fluoro-6-methyl-4-(3-(quinazolin-2-ylamino)pyrrolidine-1-carbonyl)phenyl)acrylamide]",pIC50,CDK12 wt/CycK,5.00 to 6.00
same,pIC50,CDK2/CycA2,4.52 to 5.00
same,pIC50,CDK7/CycH/MAT1,4.52 to 5.00
"CC#CC(=O)Nc1ccc(C(=O)N2CC[C@@H](Nc3ncc4ccccc4n3)C2)cc1 [Example 77, (R)—N-(4-(3-(quinazolin-2-ylamino)pyrrolidine-1-carbonyl)phenyl)but-2-ynamide]",pIC50,CDK12 wt/CycK,≥ 7.00
same,pIC50,CDK2/CycA2,6.00 to 7.00
same,pIC50,CDK7/CycH/MAT1,6.00 to 7.00
C=CC(=O)Nc1ccc(C(=O)N2CC[C@@H](Nc3ncc4ccccc4n3)C2)c(C)c1 [Example 78],pIC50,CDK12 wt/CycK,6.00 to 7.00
same,pIC50,CDK2/CycA2,5.00 to 6.00
same,pIC50,CDK7/CycH/MAT1,5.00 to 6.00
"C=CC(=O)N1CCOc2cc(C(=O)N3CC[C@@H](Nc4ncc5ccccc5n4)C3)ccc21 [Example 80, (R)-1-(7-(3-(quinazolin-2-ylamino)pyrrolidine-1-carbonyl)-2H-benzo[b][1,4]oxazin-4(3H)-yl)prop-2-en-1-one]",pIC50,CDK12 wt/CycK,≥ 7.00
same,pIC50,CDK2/CycA2,6.00 to 7.00
same,pIC50,CDK7/CycH/MAT1,6.00 to 7.00
"COc1cc(C(=O)N2CC[C@@H](Nc3ncc4ccccc4n3)C2)ccc1NC(=O)/C=C/CN(C)C [Example 81, (R,E)-4-(dimethylamino)-N-(2-methoxy-4-(3-(quinazolin-2-ylamino)pyrrolidine-1-carbonyl)phenyl)but-2-enamide]",pIC50,CDK12 wt/CycK,6.00 to 7.00
same,pIC50,CDK2/CycA2,5.00 to 6.00
same,pIC50,CDK7/CycH/MAT1,6.00 to 7.00
"CN(C)C/C=C/C(=O)Nc1ccc(C(=O)N2CC[C@@H](Nc3ncc4ccccc4n3)C2)cc1Cl [Example 82, (R,E)-N-(2-chloro-4-(3-(quinazolin-2-ylamino)pyrrolidine-1-carbonyl)phenyl)-4-(dimethylamino)but-2-enamide]",pIC50,CDK12 wt/CycK,6.00 to 7.00
same,pIC50,CDK2/CycA2,5.00 to 6.00
same,pIC50,CDK7/CycH/MAT1,6.00 to 7.00
"CN(C)C/C=C/C(=O)N1CCOc2cc(C(=O)N3CC[C@@H](Nc4ncc5ccccc5n4)C3)ccc21 [Example 84, (R,E)-4-(dimethylamino)-1-(7-(3-(quinazolin-2-ylamino)pyrrolidine-1-carbonyl)-2H-benzo[b][1,4]oxazin-4(3H)-yl)but-2-en-1-one]",pIC50,CDK12 wt/CycK,6.00 to 7.00
same,pIC50,CDK2/CycA2,5.00 to 6.00
same,pIC50,CDK7/CycH/MAT1,6.00 to 7.00
"C=CC(=O)Nc1cccc(C(=O)N2CC[C@@H](Nc3ncc4ccccc4n3)C2)c1 [Example 87, (R)—N-(3-(3-(quinazolin-2-ylamino)pyrrolidine-1-carbonyl)phenyl)acrylamide]",pIC50,CDK12 wt/CycK,6.00 to 7.00
same,pIC50,CDK2/CycA2,6.00 to 7.00
same,pIC50,CDK7/CycH/MAT1,6.00 to 7.00
"CN(C)C/C=C/C(=O)N1CCCc2cc(C(=O)N3CC[C@@H](Nc4ncc5ccccc5n4)C3)ccc21 [Example 89, (R,E)-4-(dimethylamino)-1-(6-(3-(quinazolin-2-ylamino)pyrrolidine-1-carbonyl)-3,4-dihydroquinolin-1(2H)-yl)but-2-en-1-one]",pIC50,CDK12 wt/CycK,6.00 to 7.00
same,pIC50,CDK2/CycA2,5.00 to 6.00
same,pIC50,CDK7/CycH/MAT1,6.00 to 7.00
"C=CC(=O)Nc1ccc(C(=O)N2CC[C@@H](Nc3ncc4cccc(F)c4n3)C2)cc1 [Example 90, (R)—N-(4-(3-((8-fluoroquinazolin-2-yl)amino)pyrrolidine-1-carbonyl)phenyl)acrylamide]",pIC50,CDK12 wt/CycK,6.00 to 7.00
same,pIC50,CDK2/CycA2,5.00 to 6.00
same,pIC50,CDK7/CycH/MAT1,5.00 to 6.00
"C=CC(=O)Nc1ccc(C(=O)N2CC[C@@H](Nc3ncc4c(F)cccc4n3)C2)cc1 [Example 91, (R)—N-(4-(3-((5-fluoroquinazolin-2-yl)amino)pyrrolidine-1-carbonyl)phenyl)acrylamide]",pIC50,CDK12 wt/CycK,6.00 to 7.00
same,pIC50,CDK2/CycA2,5.00 to 6.00
same,pIC50,CDK7/CycH/MAT1,5.00 to 6.00
